# How the values were obtained:
# [1] = target: T1, matrix metalloproteinase-2 (Homo sapiens, UniProt P08253); experiment: Extracellular inhibition test on enzyme activity of secreted MMP-2 in cultured medium; type: biochemical; settings: cultured medium of PMA induced HT 1080, different concentrations, 24 hours
# T1 construct: matrix metalloproteinase-2 and matrix metalloproteinase-9 were secreted from the PMA induced HT 1080; endogenous in cells; host or cells: HT 1080 cells induced with 100 nM PMA
# T1 sequence (P08253 110-660): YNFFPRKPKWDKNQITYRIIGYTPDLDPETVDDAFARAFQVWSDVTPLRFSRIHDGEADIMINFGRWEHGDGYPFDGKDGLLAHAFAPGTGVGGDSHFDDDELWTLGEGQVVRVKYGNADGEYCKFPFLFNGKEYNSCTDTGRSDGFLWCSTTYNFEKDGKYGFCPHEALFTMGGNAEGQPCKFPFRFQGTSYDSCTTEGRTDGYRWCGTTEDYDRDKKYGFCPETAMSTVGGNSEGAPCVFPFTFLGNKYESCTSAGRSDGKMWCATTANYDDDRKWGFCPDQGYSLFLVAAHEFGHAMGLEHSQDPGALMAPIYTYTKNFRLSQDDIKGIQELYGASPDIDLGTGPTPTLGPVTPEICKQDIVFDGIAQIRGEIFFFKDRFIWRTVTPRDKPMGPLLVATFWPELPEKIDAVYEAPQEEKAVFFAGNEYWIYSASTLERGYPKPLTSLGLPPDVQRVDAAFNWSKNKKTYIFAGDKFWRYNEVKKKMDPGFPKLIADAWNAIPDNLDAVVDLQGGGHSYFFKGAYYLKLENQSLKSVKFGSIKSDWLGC
# Experimental: (§1) HT 1080 cells with appropriate cell numbers were cultured in 60 mm culturing plates for 12 hours, respectively. After the cells were attached onto the bottom of the plate and formed a monolayer, the medium in the plate was removed. Fresh serum free mediums with different concentrations of a test sample were added to the plates, respectively, and 100 nM PMA was added to each plate to induce the cells to express great quantities of matrix metalloproteinase-2 and matrix metalloproteinase-9, and the plates were placed in a temperature of 37° C. for 24 hours. After centrifugation, each cultured supernatant were saved and mixed with SDS-sample buffer under the same protein contents which were then injected into a 10% SDS-polyacrylamide gel (containing 1 mg/ml gelatin) and then electrophoresed. After the electrophoresis was completed, the gel was taken out and washed with 20 mM Tris-HCl containing 25% isopropanol three times; 10 minutes per time. […]
# (§2) HT 1080 cells were induced with PMA, and the cultured medium for culturing the HT 1080 cells therefrom was taken out and treated with the different concentrations of L-Glutamic acid γ-hydroxamate (DH) for 24 hours, respectively. After that the enzyme activities of the matrix metalloproteinase-2 and matrix metalloproteinase-9 in the medium were analyzed. […]
# [2] = test system: matrix metalloproteinase-2; experiment: RT-PCR, MMP-2 gene expression in HT 1080 cells; type: cell-based, Human
# Experimental: 7. RNA Extraction and Reverse Transcription-Polymerase Chain Reaction (RT-PCR)
# HT 1080 cells with appropriate cell numbers were cultured in 60 mm culturing plates for 6 hours, respectively. After the cells were attached onto the bottom of the plate and formed a monolayer, the medium in the plate was removed. Fresh serum free mediums with different concentrations of a test sample were added to the plates, respectively, and 100 nM PMA was added to each plate to induce the cells to express great quantities of matrix metalloproteinase-2 and matrix metalloproteinase-9, and the plates were placed in a temperature of 37° C. for 6 hours. After that, the total RNA of the cells were extracted with the TRIzol reagent and reverse transcripted by a reverse transcriptase to synthesize cDNA. The synthesize cDNA was used as a template to perform GADPH, matrix metalloproteinase-2 and matrix metalloproteinase-9 PCR amplifications.
# [3] = target: T2, matrix metalloproteinase-9 (Homo sapiens, UniProt P14780); experiment: Extracellular inhibition test on enzyme activity of secreted MMP-9 in cultured medium; type: biochemical; settings: cultured medium of PMA induced HT 1080, different concentrations, 24 hours
# T2 construct: matrix metalloproteinase-2 and matrix metalloproteinase-9 were secreted from the PMA induced HT 1080; endogenous in cells; host or cells: HT 1080 cells induced with 100 nM PMA
# T2 sequence (P14780 94-707): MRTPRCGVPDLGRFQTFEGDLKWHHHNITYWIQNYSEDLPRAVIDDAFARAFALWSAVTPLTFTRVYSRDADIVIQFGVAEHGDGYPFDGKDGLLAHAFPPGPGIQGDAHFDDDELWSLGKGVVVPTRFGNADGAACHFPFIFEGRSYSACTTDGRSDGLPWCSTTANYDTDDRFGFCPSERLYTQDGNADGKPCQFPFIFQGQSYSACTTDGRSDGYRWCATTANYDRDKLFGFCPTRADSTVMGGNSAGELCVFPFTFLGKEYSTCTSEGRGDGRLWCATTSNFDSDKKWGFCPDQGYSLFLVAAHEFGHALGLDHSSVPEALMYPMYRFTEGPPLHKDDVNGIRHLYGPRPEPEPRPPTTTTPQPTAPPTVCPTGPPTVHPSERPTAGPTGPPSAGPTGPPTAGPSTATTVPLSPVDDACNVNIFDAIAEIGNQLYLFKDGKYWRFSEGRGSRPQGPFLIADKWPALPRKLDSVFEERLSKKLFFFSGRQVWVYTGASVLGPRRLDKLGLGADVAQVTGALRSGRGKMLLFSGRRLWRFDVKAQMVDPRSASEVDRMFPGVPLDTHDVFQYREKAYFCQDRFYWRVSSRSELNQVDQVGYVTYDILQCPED
# Experimental: as §1, §2
# HT 1080 cells [4] = experiment: Wound healing assay and colony dispersion assay (cell migration); type: cell-based, Human
# Experimental: 8. Wound Healing Assay (Park et al., 2005; Hwang et al., 2006)
# Cells with appropriate cell numbers were cultured in a 24 well culturing plate for 12 hours. After the cells were attached to each bottom of each well of the plate and formed a monolayer, the medium in the well was removed. The middle of each bottom of each well having the monolayer thereon was scraped by a 200 μl tip to form a scratched line with a width of 1 mm. The cells in each well were washed with a PBS buffer twice, and fresh mediums with different concentrations of a test drug were added to the wells, respectively and cultured for 18 hours. After that, the upper medium in each well was removed. The cells were washed with a PBS buffer twice, fixed with 100% methanol and stained with a toluidine blue. The calculation for the migration rate of the cells was:
# 9. Colony Dispersion Assay (Hwang et al., 2006)
# Cells with appropriate cell numbers were cultured in a 24 well culturing plate for 12 hours. After the cells were attached to each bottom of each well of the plate and formed a monolayer, the medium in the well was removed. Fresh mediums with different concentrations of a test drug were added to the wells, respectively and cultured for 3 days. After that, the upper medium in each well was removed. Then, the cells were washed with a PBS buffer twice, fixed with 100% methanol and stained with a toluidine blue.
# HT 1080 cells [5] = experiment: Invasion assay (Matrigel transwell); type: cell-based, Human
# Experimental: 10. Invasion Assay (Lee et al., 2005; Huang et al., 2005; Park et al., 2005)
# HT 1080 cells were used to prepare a cell suspension with an appropriate concentration by a fresh serum free medium and than placed in each upper chamber of each transwell (BD Matrigel™ Invasion Chamber 24-Well Plate 8.0 Micron). Fresh serum containing mediums with different concentrations of a test drug were added to the lower chambers of the transwells, respectively. The transwells were placed in an incubator containing 5% CO2 at 37° C. for 18 hours. After that, the medium in the upper chamber was removed and cells on the upper surface of the membrane of the transwell were wiped by a cotton swab. Finally, the cells were fixed and stained. The calculation for the invasion rate of the cells was:
# Ne: Numbers of cells crossing the membrane Nc: Numbers of total cells
# [6] = about 0.1-3 mM, stated as embodiment
structure (smiles),measurement,setting,value
"NC(CCC(=O)NO)C(=O)O [DH, L-Glutamic acid γ-hydroxamate]",direct inhibition of enzyme activity of secreted matrix metalloproteinase-2,[1],no inhibition
same,gene expression (mRNA) of matrix metalloproteinase-2,"[2]; HT 1080 cells, 0.4, 0.8, 1.2, and 1.6, 6 hours, RT-PCR",decreased
same,inhibition rate to the gene transcriptional expression of metalloproteinase-2 of a cancer cell,"[2]; about 0.1-2 mM, stated as embodiment, 'and/or' MMP-9",20-80%
same,direct inhibition of enzyme activity of secreted matrix metalloproteinase-9,[3],no inhibition
same,IC50,"HT 1080 cells [4]; Homo sapiens, HT-1080, 0.4, 1.2, 2 and 2.8 mM, 18 hours",1.75 mM
same,inhibition rate to cancer cell migration,HT 1080 cells [4]; [6],20-85%
same,IC50,"HT 1080 cells [5]; Homo sapiens, HT-1080, 0.8, 1.6 and 2.4 mM, 18 hours, read-out: IC50 HT 1080 crossing membrane to the lower chamber (invasion)",1.26 mM
same,inhibition rate to cancer cell invasion,HT 1080 cells [5]; [6],40-85%

# Reference: patent publication US20120101163A1, “COMPOSITION FOR INHIBITING CANCER METASTASIS” (TAIPEI MEDICAL UNIVERSITY, priority 2010, published 2012)
